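Exposure lasted 48 hours, with cells grown in 96-well plates and compounds tested at five concentrations. The concentration for 50% growth inhibition is given as GI50.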 Activity calls are given as the source filed them. Cut-off read from the data, not from the text of the source: active = GI50 up to about 1.1 µM and inactive = higher.
What was measured:
Assay in all cases: DTP human tumour cell line panel, 48 h
[1] = tested on: A498
[2] = tested on: CCRF-CEM
[3] = tested on: HCC 2998
[4] = tested on: HCT-15
[5] = tested on: IGROV-1
[6] = tested on: Malme-3M
[7] = tested on: NCI-H522
[8] = tested on: OVCAR-5
[9] = tested on: SF-295
[10] = tested on: SF-539
[11] = tested on: SK-MEL-2
[12] = tested on: SNB-75
[13] = tested on: SW-620
[14] = tested on: TK-10
[15] = tested on: U-251
[16] = tested on: UACC-62
[17] = tested on: SR

SMILES | GI50 [1] | GI50 [2] | GI50 [3] | GI50 [4] | GI50 [5] | GI50 [6] | GI50 [7] | GI50 [8] | GI50 [9] | GI50 [10] | GI50 [11] | GI50 [12] | GI50 [13] | GI50 [14] | GI50 [15] | GI50 [16] | GI50 [17]
Cc1ccc(NC(=O)CC(=O)n2nc(C)c(/N=N/c3ccccc3C(=O)O)c2C)cc1 | > 100 µM (inactive) | > 100 µM (inactive) | > 100 µM (inactive) | > 100 µM | > 100 µM (inactive) | > 100 µM (inactive) | > 100 µM (inactive) | > 100 µM (inactive) | > 100 µM (inactive) | > 100 µM (inactive) | > 100 µM (inactive) | 89.1 µM (inactive) | > 100 µM (inactive) | > 100 µM (inactive) | > 100 µM (inactive) | > 100 µM (inactive) | 
CCOC(=O)NC(=O)c1cn(CCN2CCN(C(=O)NCCCCCCNC(=O)N3CCN(CCn4cc(C(=O)NC(=O)OCC)c(=O)n(CCN(CC)CC)c4=O)CC3)CC2)c(=O)n(CCC(CC)CC)c1=O | > 100 µM (inactive) |  | > 100 µM (inactive) | > 100 µM | > 100 µM (inactive) | > 100 µM (inactive) | > 100 µM (inactive) | > 100 µM (inactive) | > 100 µM (inactive) | > 100 µM (inactive) | > 100 µM (inactive) | > 100 µM (inactive) | > 100 µM (inactive) | > 100 µM (inactive) | > 100 µM (inactive) | > 100 µM (inactive) | > 100 µM (inactive)
O=[N+]([O-])c1cc(Cl)ccc1OCc1ccccc1 | > 100 µM (inactive) | 40.9 µM (inactive) | > 100 µM (inactive) | 67 µM | > 100 µM (inactive) | 99.3 µM (inactive) |  |  | 56.6 µM (inactive) | 57.3 µM (inactive) | > 100 µM (inactive) | 20.6 µM (inactive) | > 100 µM (inactive) | > 100 µM (inactive) | 42.2 µM (inactive) | > 100 µM (inactive) | 26.4 µM (inactive)
CCCCCCCCC(C)CCCCCCCCC(=O)OCC(COP(=O)([O-])OCC[N+](C)(C)C)OC(=O)CCCCCCCCC(C)CCCCCCCC (stereo unspecified) | > 100 µM (inactive) | > 100 µM (inactive) | > 100 µM (inactive) | > 100 µM | > 100 µM (inactive) | > 100 µM (inactive) | > 100 µM (inactive) | > 100 µM (inactive) | > 100 µM (inactive) |  | > 100 µM (inactive) | > 100 µM (inactive) | > 100 µM (inactive) | > 100 µM (inactive) | > 100 µM (inactive) | > 100 µM (inactive) | > 100 µM (inactive)
O=C1C2C3C=C4c5ccccc5N(c5ccccc5)C4(C2C(=O)N1c1ccc([N+](=O)[O-])cc1)[C@H]1C(=O)N(c2ccc([N+](=O)[O-])cc2)C(=O)[C@@H]31 (stereo partly specified) | > 100 µM (inactive) | > 100 µM (inactive) | > 100 µM (inactive) | > 100 µM | > 100 µM (inactive) | > 100 µM (inactive) | > 100 µM (inactive) | > 100 µM (inactive) | > 100 µM (inactive) | > 100 µM (inactive) | > 100 µM (inactive) | 11.1 µM (inactive) | > 100 µM (inactive) | > 100 µM (inactive) | > 100 µM (inactive) | > 100 µM (inactive) | 
CC(=O)Nc1ccc(C2CC(c3ccc([N+](=O)[O-])cc3)=Nc3ccccc3S2)cc1 (stereo unspecified) | 16.5 µM (inactive) | 13.8 µM (inactive) |  | 17.1 µM | 25.8 µM (inactive) | 18.3 µM (inactive) | > 10 µM (inactive) | 22.2 µM (inactive) | 18.6 µM (inactive) | 17.7 µM (inactive) | 17.9 µM (inactive) | 12.8 µM (inactive) | 16.8 µM (inactive) | 23.9 µM (inactive) | 15.2 µM (inactive) | 15.2 µM (inactive) | 12.9 µM (inactive)
S=C(Nc1ccccc1)N(/N=C/C=C/c1ccccc1)c1nnc(-c2ccccc2)c(-c2ccccc2)n1 | 67.5 µM (inactive) | 51.2 µM (inactive) | 76.7 µM (inactive) | 82.2 µM | > 100 µM (inactive) | 57.7 µM (inactive) | 27.2 µM (inactive) | > 100 µM (inactive) | 42.9 µM (inactive) | 35.7 µM (inactive) | 56.8 µM (inactive) | > 100 µM (inactive) | > 100 µM (inactive) | 95.3 µM (inactive) | > 100 µM (inactive) | 52.4 µM (inactive) | 
CC(=O)c1cccc(NC(=O)C(=O)C(C2OC(=O)c3ccccc32)[N+](=O)[O-])c1 (stereo unspecified) | > 100 µM (inactive) | > 100 µM (inactive) | > 100 µM (inactive) | > 100 µM | > 100 µM (inactive) | > 100 µM (inactive) |  | > 100 µM (inactive) | > 100 µM (inactive) | > 100 µM (inactive) | > 100 µM (inactive) | > 100 µM (inactive) | > 100 µM (inactive) | > 100 µM (inactive) | > 100 µM (inactive) | > 100 µM (inactive) | > 100 µM (inactive)
O=C(CSc1nnc(-c2ccc(/N=C\c3ccc(Cl)cc3)cc2)o1)Nc1cccc(Cl)c1 |  | > 100 µM (inactive) |  | > 100 µM |  | > 100 µM (inactive) | 36.1 µM (inactive) |  | > 100 µM (inactive) |  | > 100 µM (inactive) | > 100 µM (inactive) | > 100 µM (inactive) | > 100 µM (inactive) | > 100 µM (inactive) | > 100 µM (inactive) | > 100 µM (inactive)
N#Cc1c(N)oc2cc3c(C#N)c(N)oc3cc12 |  | > 100 µM (inactive) | > 100 µM (inactive) | > 100 µM | > 100 µM (inactive) | > 100 µM (inactive) | > 100 µM (inactive) | > 100 µM (inactive) | > 100 µM (inactive) | > 100 µM (inactive) | > 100 µM (inactive) | 83.6 µM (inactive) | > 100 µM (inactive) | > 100 µM (inactive) | > 100 µM (inactive) | > 100 µM (inactive) | 
O=c1c2cc(-c3ccccc3)sc2nc2sc(-c3ccccc3)nn12 | > 100 µM (inactive) | > 100 µM (inactive) |  | > 100 µM | > 100 µM (inactive) | > 100 µM (inactive) | > 100 µM (inactive) | > 100 µM (inactive) | > 100 µM (inactive) | > 100 µM (inactive) | > 100 µM (inactive) | > 100 µM (inactive) | > 100 µM (inactive) | > 100 µM (inactive) | > 100 µM (inactive) | > 100 µM (inactive) | > 100 µM (inactive)
Cc1ccccc1N1C(=O)/C(=C/c2ccc(N(CCC#N)CCC#N)cc2)N=C1c1cc([N+](=O)[O-])ccc1Cl | > 100 µM (inactive) | 48.6 µM (inactive) | > 100 µM (inactive) | > 100 µM | > 100 µM (inactive) | > 100 µM (inactive) | > 100 µM (inactive) | 42.1 µM (inactive) | 31 µM (inactive) | > 100 µM (inactive) | > 100 µM (inactive) | > 100 µM (inactive) | > 100 µM (inactive) |  | 36 µM (inactive) | 22.5 µM (inactive) | 7.19 µM (inactive)

Source: ChEMBL document CHEMBL1201862, “PubChem BioAssay data set” (2004)
